This is an account of results in patent publication US4868291A, “4'-deshydroxyepipodophyllotoxin glucosides: synthesis and use” (Bristol-Myers Company, priority 1987, dated 1989).

The term IC50 denotes the concentration needed to halve the response being measured.

Series [1] concerns variety of cancers including small cell lung cancer, non-lymphocytic leukemia and non-seminomatous testicular cancer. As to conditions: clinical, background statement; cited from earlier work.
The conditions of series [2]: Haim et al. 1986; cited from earlier work.
Another series relates to P388 murine leukemia. Put plainly: Antitumor activity against murine P388 leukemia in CDF1 mice. It counts as in vivo. As for the experimental part:
Female CDF1 mice were implanted intraperitoneally with a tumor inoculum of 10^6 ascites cells of P388 murine leukemia and treated with various doses of the compound of Example 4; four mice were used for each dose level and ten were used as saline-treated control. The compound was administered by intraperitoneal injection in two injections on day 1 and day 5. Antitumor activity was expressed as %T/C which is the ratio of the median survival time (MST) of the drug-treated group to the MST of the saline-treated control group. A compound showing a %T/C of 125 or greater is generally considered to have significant antitumor activity in the P388 test. The experiment lasted 31 days at the end of which time the number of survivors was noted.

For a further series, the system named is HCT/VP35. Put plainly: In vitro cytotoxicity assay, HCT/VP35 human colon, etoposide resistant. To be noted: dissolved in DMSO, two unlabelled lines of values. It counts as cell-based. As for the experimental part: (§1) The in vitro cytotoxicity assay involves growing various mammalian tumor cells, including human tumor cells, on Microtiter plates employing established tissue culture methods. The concentration of each compound required to inhibit cell growth by 50% (IC50) is then determined by a four-fold serial dilution technique. The validity of the method has been supported by a report published in the "Proceedings of the American Association for Cancer Research", 1984, 25: 1891 (Abst. No. 328). Tumor cells of the following type were employed: B16-F10 murine melanoma, Moser human colon, SW900 human lung resistant to teniposide (VM) and etoposide (VP) and three human colon tumor cell lines, i.e. HCT-116, HCT-VM and HCT-VP, the latter two being resistant to teniposide (VM) and etoposide (VP), respectively. IC50 values less than […] are a positive indicator of antitumor activity. Table I presents IC50 values against the above-mentioned cell lines.

In another series the test system is B16-F10. Nature of the series: In vitro cytotoxicity assay, B16-F10 murine melanoma. The class given is cell-based. As to conditions: dissolved in DMSO, two unlabelled lines of values. As for the experimental part:
as §1

Another series relates to MOSER. Put plainly: In vitro cytotoxicity assay, Moser human colon. The class given is cell-based. To be noted: dissolved in DMSO, two unlabelled lines of values. Here is the method: as §1

In brackets after ≈: the same amount, converted by molar mass. Where two headings read alike, the source gives them in different places.

As for `COc1cc([C@@H]2c3cc4c(cc3[C@@H](O[C@@H]3O[C@@H]5CO[C@@H](C)O[C@H]5[C@H](O)[C@H]3O)[C@H]3COC(=O)[C@H]23)OCO4)cc(OC)c1O` [Etoposide], the “activity in the treatment of cancers” value in series [1] is given as “active in the treatment of a variety of cancers”. For the same compound, in series [2], the “metabolites formed on peroxidative activation” value is recorded as “formation of two metabolites, one of which has been identified as the corresponding orthoquinone III”.
With `COc1cc(OC)cc([C@@H]2c3cc4c(cc3[C@@H](O[C@@H]3O[C@@H]5CO[C@@H](C)O[C@H]5[C@H](O)[C@H]3O)[C@H]3COC(=O)[C@H]23)OCO4)c1` [Example 4, 4'-Desmethoxyetoposide], the “MST (median survival time)” value in the series with P388 murine leukemia (150 mg/kg/inj., i.p., days 1 and 5, dose with maximum effect, saline control 10.0 days) turned out to be 17.5 days. In addition, the “Day 5 No. mice alive/total” value with P388 murine leukemia (150 mg/kg/inj., i.p., day 5) is on record as 4/4. Besides, the “mice alive at day 31” value in the series with P388 murine leukemia (day 31, test or control group) was “no mice were alive”. In the series with P388 murine leukemia (maximum %T/C, at 150 mg/kg/inj., i.p., days 1 and 5, 125 or greater is significant), the “% T/C (MST treated / MST control)” value is listed as 175%. In addition, the half-inhibitory concentration (IC50) stood at 3.5 µg/mL (≈ 6.11 µM) in the series with HCT/VP35 (HCT/VP35, resistant to etoposide); 3.3 µg/mL (≈ 5.76 µM) with HCT/VP35 (Homo sapiens, HCT/VP35, HCT/VP35, resistant to etoposide, read-out: IC50); 27 µg/mL (≈ 47.2 µM) in the series with B16-F10 (B16-F10); 23 µg/mL (≈ 40.2 µM) with B16-F10 (Mus musculus, B16-F10, B16-F10, read-out: IC50); 60 µg/mL (≈ 105 µM) in the series with MOSER (Homo sapiens, read-out: IC50); 31 µg/mL (≈ 54.1 µM) in the series on MOSER.
As for `COc1cc([C@@H]2c3cc4c(cc3[C@@H](O[C@@H]3O[C@@H]5CO[C@@H](c6cccs6)O[C@H]5[C@H](O)[C@H]3O)[C@H]3COC(=O)[C@H]23)OCO4)cc(OC)c1O` [Teniposide], the “activity in the treatment of cancers” value in series [1] is reported as “active in the treatment of a variety of cancers”. Besides, the “metabolites formed on peroxidative activation” value in series [2] is “formation of two metabolites, one of which has been identified as the corresponding orthoquinone III”.
